# Reference: patent US12410152B2, “Oxazole and thioazole-type cullin ring ubiquitin ligase compounds and uses thereof” (Proxygen GmbH, priority 2019, dated 2025)
# Experiments:
# CCNK and DDB1 [1] = molecular target: T1, CCNK and DDB1 (Homo sapiens, UniProt O75909+Q16531); assay: Drug affinity chromatography with IC021313.2^NH2-coupled beads in KBM7 lysates; type: binding; conditions: KBM7 whole cell lysates; competed by THZ531 100 μM
# T1 construct: endogenous in cells; host or cells: KBM7 cells (lysate in A24, intact cells in A25)
# Description: Regarding the first strategy, a variant of IC021313.2 associated with a free amine and named IC021313.2^NH2 allowed immobilizing IC021313.2^NH2 on sepharose beads, and purification of interacting proteins out of whole cell lysates (FIG. 20 a, b). […] Treating lysates with THZ531 and thus covalently blocking the active sites on CDK12/13 prevented DDB1 and CCNK enrichment via the IC021313.2^NH2 resin. This is in line with the fact that cellular co-treatment with THZ531 was able to abrogate drug-induced CCNK degradation (FIG. 19 d).
# 100 μL NHS-Activated Sepharose 4 Fast Flow (GE Life Sciences, 17090601) per condition were washed with 500 μL DMSO 3 times (3 min 800 rpm centrifugation at RT). Beads were resuspended in 50 μL DMSO and 2.5 μL IC021313.2^NH2 10 mM and 0.75 μL TEA (Sigma-Aldrich, T0886) were added. […]
# 200 million KBM7 cells were resuspended in 2 mL lysis buffer ([…] pH 7.5, 0.2% NP-40, 5% glycerol, 1.5 mM MgCl2, 100 mM NaCl, 1 mM EDTA) supplemented with protease inhibitors (Thermo Scientific, 78437) and benzonase (Merck, US170746-370746) and incubated on ice for 30 min. After centrifugation (full-speed, 4° C., 30 min) supernatant was transferred to a new tube and extracted protein measured with BCA (Fisher Scientific, 23225). […]
# CCNK and DDB1 [2] = molecular target: T1, CCNK and DDB1; assay: Photo-affinity probe (IC021313.2^PAP) pulldown in intact KBM7 cells; type: binding; conditions: UV crosslink, competed by THZ531
# Method: Regarding the second strategy, an alternative method for drug-target enrichment that is based on cellular treatment with IC021313.2^PAP, a functionalized analog of IC021313.2 containing a photoactive diazirine moiety and an alkyne handle was performed (FIG. 20 d). Following cellular treatment with IC021313.2^PAP, cells were UV crosslinked, lysed and the alkyne handle in IC021313.2^PAP was biotinylated for subsequent immobilization on streptavidin beads and identification of drug-interacting proteins via immunoblots. […] Also in this setup, covalently saturating the CDK12/13 binding site with THZ-531 competed with IC021313.2^PAP enrichment (FIG. 20 e, f). Collectively, both strategies indicate simultaneous engagement of the destabilized CCNK and the CRL4 adaptor protein DDB1 in a CDK12/13-dependent manner.
# IC021313.2^NH2 was conjugated to a constant side chain consisting of a photosensitive diazirine group and an alkyne handle.
# 20 million KBM7^WT cells per condition were pre-treated with either DMSO or 100 μM THZ531 (competition condition) for 1h in the presence of 10 μM carfilzomib (Selleckchem, S2853) in serum-free IMDM medium (3 ml/20 million cells/10 cm dish). Then, cells were treated with 10 μM IC020772.1^PAP for 1h. […] Eluates were analyzed by WB. Quantification was performed with ImageJ.
# [3] = system: KBM7 cells (DCAF15 knockout); assay: Cell viability, KBM7 DCAF15 knockout vs WT (72 hour treatment); type: cell-based, human
# Method: FIG. 18. (A) Cellular viability of KBM7 cells (WT or UBE2M mutant) after treatment with dCeMM.1. (72 hour treatment) (B) cellular viability of KBM7 cells (WT or DCAF15 knockout) after dose-ranging treatment with dCeMM.1 (72 hour treatment).
# In another experiment, 2000 compounds were screened in a set up comparing their anti-proliferative effect in KBM7 cells modified in the UBE2M gene to wildtype KBM7 cells (FIG. 3). The PROTAC® ARV-771 was taken as positive control. Of note, among the identified hits was also dCeMM.1, which was similarly identified via the aforementioned DCAF15 restabilization assay.
# DCAF15 = molecular target: T2, DCAF15 (Homo sapiens, UniProt Q66K64); assay: DCAF15 stabilization, live-cell HiBit/LgBit bioluminescence screen; type: cell-based; conditions: 10 μM, 293T cells expressing HiBit-DCAF15
# T2 construct: expressed in transfected cells; host or cells: 293T cells, DCAF15 knocked out, additionally transduced with LgBit
# Description: Subsequently, in this context, the E3 ligase substrate receptor (SR) stabilization approach was employed in order to identify novel chemical matter that can bind and chemically re-program the substrate receptor DCAF15. To be able to screen a collection of around 8000 small-molecules, a cellular system was developed that enabled monitoring of DCAF15 levels in live cells in multi-well format. To that end, DCAF15 was first knocked out in 293T cells via CRISPR/Cas9 technology. Then, DCAF15 was stably expressed as a HiBit® fusion protein in these cells. After further transducing these cells with LgBit, this allowed live-cell tracing of DCAF15 levels in 384 well format by measuring bioluminescence (FIG. 13).
# In brief, cells were seeded at a concentration of 250′000 cells/ml in DMEM+10% FCS+25 mM Hepes. The luciferase substrate Endurazine was added at concentrations recommended by the manufacturer. Small-molecules were added at a concentration of 10 μM, and their effect on DCAF15 levels was assayed by continuous bioluminescent imaging (measurements were taken every 120 minutes). In total, 8000 compounds were tested.
# The known DCAF15 molecular glue indisulam was used as a positive control. In brief, indisulam is known to act as a DCAF15-dependent molecular glue that binds DCAF15 and induced proximity between DCAF15 and RBM39, leading to the degradation of the latter. […]
# RBM39 = molecular target: T3, RBM39 (Homo sapiens, UniProt Q14498+Q66K64); assay: RBM39 levels by Western blot, WT vs DCAF15-deficient cells; type: cell-based; conditions: KBM7 12 or 16 h (dCeMM-1); 293T 10 h (dCeMM-2)
# T3 construct: endogenous in cells; host or cells: KBM7 (WT or DCAF15 knockout) and 293T (DCAF15-HiBit or knockout)
# Method: The known DCAF15 molecular glue indisulam was used as a positive control. In brief, indisulam is known to act as a DCAF15-dependent molecular glue that binds DCAF15 and induced proximity between DCAF15 and RBM39, leading to the degradation of the latter. […] Given the structural similarity to indisulam, it was assayed if the two new test compounds would similarly lead to the degradation of RBM39 in a DCAF15-dependent manner. Towards that end, their effect on RBM39 levels in wildype cells as well as cells deficient for DCAF15 levels was tested. KBM7 (WT or knockout, FIG. 15) as well as 293T cells (DCAF15-HiBit overexpression vs knockout, see FIG. 16) were tested in various conditions of dCEMM.1 and/or dCEMM.2, comparing their effect to indisulam.
# PBS-washed cell pellets were lysed in 50 mM Tris pH 7.9, 8M Urea and 1% CHAPS and incubated with shaking at 4° C. for at least 30 min. 20 μg of supernatants were run and transferred for detection. […]
# UBE2M mutant KBM7 cells = assay: cells; type: cell-based; conditions: KBM7 UBE2M mutant vs WT
# Method: KBM7 cells with the specified genetic backgrounds were grown in IMDM supplemented with 10% FBS and 1% penicillin/streptomycin (pen/strep). AsPC1, HCT116, NCI-H446 and 293T cells were grown in DMEM 10% FBS and 1% pen/strep. MV4; 11, Jurkat and Be (2) C cells were grown in RPMI 10% FBS 1% pen/strep. KBM7, AsPC1 and HCT116 cells expressing Cas9 were generated using the plasmid Lenti_Cas9_Blasti (Addgene #52962). The lentiviral plasmid lentiGuide-Puro (Addgene #52963) was used to express sgRNAs against the genes UBE2M (in KBM7-Cas9, AsPC1-Cas9 and HCT116-Cas9 cells), UBE2G1 (in KBM7-Cas9 cells) and […] (in KBM7-Cas9 cells). The lentiviral plasmid lentiGuide-Puro-IRES-mCherry (modified from Addgene #52963) was used to express sgRNAs against CUL4A (in KBM7-Cas9 cells). The lentiviral plasmid pLenti-PGK-Hygro-DEST-UBE2M was generated by Gateway cloning (empty destination vector Addgene #19066), and used to generate UBE2M^resc KBM7 cells. […]
# Following this observation, it was rationalized that novel small molecule degraders can be identified in an unbiased manner, simply by searching for compounds that lose activity in the absence of UBE2M. 2000 small molecules, mostly of unknown function/target, were tested for their antiproliferative effects in human leukemia cells (KBM7). These cells were either transduced with a control sgRNA (KBM7WT), or with an sgRNA targeting UBE2M, leading to a hypomorph (deletion of six amino acids) with a functional impairment (UBE2Mmut).
# Finally, a total of structurally similar analogs was tested to unravel structure-activity relationship of the identified molecules. To that end, their anti-cancer activity was assayed in WT cells, as well as KBM7 cells deficient in genes identified in the genome-wide CRISPR screens (UBE2M, CUL4B, UBE2G1). Moreover, the compounds were also tested in AsPC1 pancreatic cancer cells (WT or UBE2Mmut), MV4; 11 and Jurkat leukemia cells, Be (2) C neuroblastoma cells, and NCI-H446 lung cancer cells (Table 3 at the end of this document)
# KBM7^WT, mutant KBM7 clones (UBE2M^mut, UBE2M^resc, UBE2G1^mut CUL4A^mut, CUL4B^mut), and 3-day doxycycline pretreated KBM7^iCas9_sgDDB1 cells were seeded at a cell density of 50,000 cells/mL in 96-well plates with DMSO or drug, in triplicates. Drugs used: IC020772.1/IC020772.1X, IC021313.2/IC021313.2X, T6938051/T6938051X or THZ531. Cells were treated for 3 days, after which cell viability was assessed according to manufacturer's protocol (CellTiter Glo, Promega G7570). Survival curves and EC50 values were calculated by best-fit analysis of the log 10 drug concentration to fold change of drug-treated cells over DMSO-treated cells. All survival assays included technical triplicates per sample, per experiment.
# T1 sequence (O75909 whole entry): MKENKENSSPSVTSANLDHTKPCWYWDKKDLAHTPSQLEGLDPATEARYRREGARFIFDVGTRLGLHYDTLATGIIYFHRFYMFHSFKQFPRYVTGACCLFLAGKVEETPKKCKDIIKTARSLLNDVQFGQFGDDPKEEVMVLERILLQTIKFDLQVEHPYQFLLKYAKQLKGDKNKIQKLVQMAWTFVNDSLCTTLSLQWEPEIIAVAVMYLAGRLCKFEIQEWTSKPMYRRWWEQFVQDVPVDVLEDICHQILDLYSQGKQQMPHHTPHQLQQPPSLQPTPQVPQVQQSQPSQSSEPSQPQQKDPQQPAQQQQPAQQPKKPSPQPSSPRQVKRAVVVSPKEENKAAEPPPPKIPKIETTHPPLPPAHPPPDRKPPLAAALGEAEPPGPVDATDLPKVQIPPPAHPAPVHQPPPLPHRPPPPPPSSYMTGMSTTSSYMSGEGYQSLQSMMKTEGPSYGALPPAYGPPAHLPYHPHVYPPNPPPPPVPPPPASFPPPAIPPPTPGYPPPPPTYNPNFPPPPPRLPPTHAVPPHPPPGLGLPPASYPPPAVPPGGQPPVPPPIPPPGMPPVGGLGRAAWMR
# T1 sequence (Q16531 2-1140 limits assumed): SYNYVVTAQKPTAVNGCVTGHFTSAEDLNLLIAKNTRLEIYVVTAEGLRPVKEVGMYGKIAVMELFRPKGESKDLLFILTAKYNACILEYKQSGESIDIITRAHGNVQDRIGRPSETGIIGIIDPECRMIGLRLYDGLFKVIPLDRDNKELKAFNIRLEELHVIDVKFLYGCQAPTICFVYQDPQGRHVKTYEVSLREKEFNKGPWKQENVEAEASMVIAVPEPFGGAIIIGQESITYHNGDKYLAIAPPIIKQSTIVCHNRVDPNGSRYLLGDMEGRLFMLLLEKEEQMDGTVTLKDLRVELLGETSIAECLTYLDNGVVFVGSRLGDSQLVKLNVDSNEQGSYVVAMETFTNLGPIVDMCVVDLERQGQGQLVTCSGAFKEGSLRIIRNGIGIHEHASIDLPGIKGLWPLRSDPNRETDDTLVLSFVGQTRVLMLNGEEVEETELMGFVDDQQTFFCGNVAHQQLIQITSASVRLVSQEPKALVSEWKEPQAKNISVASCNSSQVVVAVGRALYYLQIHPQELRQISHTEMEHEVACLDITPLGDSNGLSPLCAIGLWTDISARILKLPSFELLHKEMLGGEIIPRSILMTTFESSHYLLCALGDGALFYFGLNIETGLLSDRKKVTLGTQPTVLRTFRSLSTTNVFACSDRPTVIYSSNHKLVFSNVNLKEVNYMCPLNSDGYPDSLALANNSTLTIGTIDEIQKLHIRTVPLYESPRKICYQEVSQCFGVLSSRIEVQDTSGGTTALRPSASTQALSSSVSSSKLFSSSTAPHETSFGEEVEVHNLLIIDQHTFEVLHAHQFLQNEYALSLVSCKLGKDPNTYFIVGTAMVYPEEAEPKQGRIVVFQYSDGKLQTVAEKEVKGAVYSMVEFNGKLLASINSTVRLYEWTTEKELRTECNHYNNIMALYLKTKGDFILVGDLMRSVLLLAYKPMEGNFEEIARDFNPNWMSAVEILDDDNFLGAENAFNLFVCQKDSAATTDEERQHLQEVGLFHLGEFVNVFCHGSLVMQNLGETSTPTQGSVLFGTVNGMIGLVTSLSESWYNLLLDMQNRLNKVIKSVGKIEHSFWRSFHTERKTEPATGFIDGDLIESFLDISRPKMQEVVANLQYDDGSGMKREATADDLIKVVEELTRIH
# T1 sequence (Q9NYV4 whole entry partner): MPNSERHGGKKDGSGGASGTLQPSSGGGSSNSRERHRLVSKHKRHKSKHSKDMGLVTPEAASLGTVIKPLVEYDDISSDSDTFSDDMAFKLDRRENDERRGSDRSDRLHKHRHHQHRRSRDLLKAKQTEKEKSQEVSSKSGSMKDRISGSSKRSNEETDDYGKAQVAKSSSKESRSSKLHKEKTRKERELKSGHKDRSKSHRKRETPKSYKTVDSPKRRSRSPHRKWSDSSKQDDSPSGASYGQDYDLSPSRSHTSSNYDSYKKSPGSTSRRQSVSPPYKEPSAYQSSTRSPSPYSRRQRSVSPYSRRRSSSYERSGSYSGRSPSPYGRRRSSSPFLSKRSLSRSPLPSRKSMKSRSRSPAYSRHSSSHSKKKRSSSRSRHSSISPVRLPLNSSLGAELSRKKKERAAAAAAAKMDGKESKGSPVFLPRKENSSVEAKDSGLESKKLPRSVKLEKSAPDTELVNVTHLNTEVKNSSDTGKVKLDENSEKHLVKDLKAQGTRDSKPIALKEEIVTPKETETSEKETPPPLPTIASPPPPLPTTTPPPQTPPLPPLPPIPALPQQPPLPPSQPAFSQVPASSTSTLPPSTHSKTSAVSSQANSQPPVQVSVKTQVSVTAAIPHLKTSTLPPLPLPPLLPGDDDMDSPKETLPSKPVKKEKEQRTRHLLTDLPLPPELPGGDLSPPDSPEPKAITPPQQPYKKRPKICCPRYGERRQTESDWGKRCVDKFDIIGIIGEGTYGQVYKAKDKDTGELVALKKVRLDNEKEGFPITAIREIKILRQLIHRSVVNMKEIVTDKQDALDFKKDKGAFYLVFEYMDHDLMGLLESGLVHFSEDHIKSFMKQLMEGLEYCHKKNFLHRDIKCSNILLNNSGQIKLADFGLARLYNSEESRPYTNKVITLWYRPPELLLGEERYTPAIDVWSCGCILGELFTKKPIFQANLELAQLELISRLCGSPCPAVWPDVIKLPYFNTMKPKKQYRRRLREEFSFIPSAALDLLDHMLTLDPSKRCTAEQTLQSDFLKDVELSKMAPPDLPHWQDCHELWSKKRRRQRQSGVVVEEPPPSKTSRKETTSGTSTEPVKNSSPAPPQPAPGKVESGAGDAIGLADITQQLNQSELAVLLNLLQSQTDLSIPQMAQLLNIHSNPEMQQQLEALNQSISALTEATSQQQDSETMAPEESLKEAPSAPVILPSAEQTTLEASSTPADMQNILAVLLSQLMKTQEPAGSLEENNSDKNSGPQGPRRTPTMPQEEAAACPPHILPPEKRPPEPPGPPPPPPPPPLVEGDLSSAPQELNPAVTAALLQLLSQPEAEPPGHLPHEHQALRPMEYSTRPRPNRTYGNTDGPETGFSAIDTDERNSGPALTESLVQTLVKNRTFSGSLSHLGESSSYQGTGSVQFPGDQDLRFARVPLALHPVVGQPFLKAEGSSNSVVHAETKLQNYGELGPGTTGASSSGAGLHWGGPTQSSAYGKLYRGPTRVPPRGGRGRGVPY
# T2 sequence (Q66K64 whole entry): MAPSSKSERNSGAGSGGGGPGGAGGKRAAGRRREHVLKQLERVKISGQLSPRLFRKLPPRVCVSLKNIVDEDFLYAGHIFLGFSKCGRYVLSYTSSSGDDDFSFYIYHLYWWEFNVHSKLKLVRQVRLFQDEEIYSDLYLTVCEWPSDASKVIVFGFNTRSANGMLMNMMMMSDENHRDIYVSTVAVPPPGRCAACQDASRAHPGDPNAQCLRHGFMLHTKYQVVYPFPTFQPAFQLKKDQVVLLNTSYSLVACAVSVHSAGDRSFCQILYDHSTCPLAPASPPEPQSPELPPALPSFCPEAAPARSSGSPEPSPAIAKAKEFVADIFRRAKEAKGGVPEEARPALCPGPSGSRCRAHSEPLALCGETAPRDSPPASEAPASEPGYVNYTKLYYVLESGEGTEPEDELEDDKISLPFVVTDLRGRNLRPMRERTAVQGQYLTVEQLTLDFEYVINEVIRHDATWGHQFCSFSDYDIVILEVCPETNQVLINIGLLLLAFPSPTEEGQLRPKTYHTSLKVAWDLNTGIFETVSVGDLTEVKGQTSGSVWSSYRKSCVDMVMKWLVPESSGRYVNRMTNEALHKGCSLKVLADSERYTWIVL
# T3 sequence (Q14498 2-530 limits assumed): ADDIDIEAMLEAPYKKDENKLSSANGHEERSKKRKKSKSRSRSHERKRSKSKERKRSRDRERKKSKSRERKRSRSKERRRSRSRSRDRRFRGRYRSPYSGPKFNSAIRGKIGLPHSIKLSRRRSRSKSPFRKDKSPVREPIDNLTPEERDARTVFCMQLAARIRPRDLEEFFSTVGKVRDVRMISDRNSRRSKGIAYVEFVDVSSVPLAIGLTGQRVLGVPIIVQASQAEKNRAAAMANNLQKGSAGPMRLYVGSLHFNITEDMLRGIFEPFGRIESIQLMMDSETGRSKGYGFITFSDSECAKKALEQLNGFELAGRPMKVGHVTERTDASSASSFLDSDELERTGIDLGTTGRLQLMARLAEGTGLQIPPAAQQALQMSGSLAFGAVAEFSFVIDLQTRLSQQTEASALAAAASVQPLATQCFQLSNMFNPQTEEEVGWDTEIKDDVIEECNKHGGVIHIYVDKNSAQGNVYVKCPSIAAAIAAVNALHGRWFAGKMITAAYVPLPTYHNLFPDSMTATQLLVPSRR
# T3 sequence (Q66K64 whole entry): as the sequence (Q66K64 whole entry) above
# T3 sequence (Q16531 2-1140 partner limits assumed): as the sequence (Q16531 2-1140 limits assumed) above
structure (smiles),measurement,setting,value
Nc1ccc2[nH]c(SCC(=O)Nc3ccc(Cl)cn3)nc2c1 [IC021313.2^NH2],interacting proteins in bead pulldown (immunoblot),CCNK and DDB1 [1],both CCNK and DDB1 as interacting proteins
C#CCCC1(CCC(=O)Nc2ccc3[nH]c(SCC(=O)Nc4ccc(Cl)cn4)nc3c2)N=N1 [IC021313.2^PAP],proteins enriched in photo-affinity pulldown (immunoblot),CCNK and DDB1 [2],DDB1 and CCNK were enriched in the eluates
Cc1ccc(S(=O)(=O)N/N=C/c2cc(Br)ccc2O)cc1 [dCeMM.1],sensitivity upon inactivation of DCAF15,[3],pronounced resistance
same,DCAF15 stabilization (relative luciferase signal over time),DCAF15,significant DCAF15 stabilization
same,"RBM39 destabilization (Western blot), DCAF15-dependent",RBM39,significant destabilization of RBM39 levels
same,anti-proliferative effect upon mutation of UBE2M,UBE2M mutant KBM7 cells,loses anti-proliferative activity
